Measured values: US9290501B2, “Methods, assays and compounds for treating bacterial infections by inhibiting methylthioinosine phosphorylase” (Albert Einstein College of Medicine, Inc., priority 2010, dated 2016)
Several values for one entry are separate records, joined by “and”; a condition that tells them apart may be missing. Equal values may be shown once. Read-outs that look alike come from different tables or passages of the source.

Tests used:
[1] = molecular target: T1, PaMTIP (Pseudomonas aeruginosa (strain ATCC 15692 / DSM 22644 / CIP 104116 / JCM 14847 / LMG 12228 / 1C / PRS 101 / PAO1), UniProt Q9HZK1); assay: biochemical
Description: Assays for slow-onset inhibitors were carried out by adding 1 nM PaMTIP into reaction mixtures at 25° C. containing 100 mM Hepes, pH 7.4, 100 mM phosphate, pH 7.4, 2 mM MTI, 5 mM DTT, 0.5 unit of xanthine oxidase and variable inhibitor concentration. Inhibitors were present at >10 times the enzyme concentration, required to simplify data analysis (24). Assays for MTA inhibition used 200 μM MTI. Controls having no enzyme and no inhibitor were included in all of the inhibition assays. Inhibition constants were obtained by fitting initial rates with variable inhibitor concentrations to equation (1) using GraFit 5 (Erithacus Software):
[formula] where vi is the initial rate in the presence of inhibitor, vo is the initial rate in the absence of inhibitor, Km is the Michaelis constant for MTI, [S] and [I] are MTI and inhibitor concentrations, respectively, and Ki is the inhibition constant. Slow-onset inhibitors display a second phase of tighter binding after reaching a thermodynamic equilibrium with the enzyme. The equilibrium constant for the second binding phase is indicated as Ki*. This constant was obtained by fitting initial final rates and inhibitor concentrations to equation (1) using GraFit 5 (22).

[2] = molecular target: T2, PfPNP (Plasmodium falciparum (isolate 3D7), UniProt Q8I3X4); conditions: read-out: dissociation constants; cited from earlier work
[3] = molecular target: T1, PaMTIP; format: biochemical; conditions: for fold decreases of Kcat/Km in comparison with those of MTI / kcat/Km: PaMTIP; for Km / kcat: PaMTIP phosphorolysis, 100 mM phosphate, pH 7.4, 25° C.
Description: Product formation was monitored by conversion of hypoxanthine to uric acid by xanthine oxidase (22). The extinction coefficient of this assay was 12.9 mM^−1cm^−1 at 293 nm. Enzyme activity with adenosine or MTA as substrates was determined by conversion of adenine to 2,8-dihydroxyadenine using the same coupling enzyme (23). Its extinction coefficient at 293 nm was 15.2 mM^−1cm^−1. Reactions were carried out at 25° C. in 1 cm cuvettes, 1 mL volumes of 100 mM Hepes, pH 7.4, 100 mM phosphate, pH 7.4, variable concentrations of nucleoside substrate, 0.5 unit of xanthine oxidase, 5 mM DTT, and appropriate amounts of purified MTIP. Reactions were initiated by addition of enzyme and the initial rates were monitored with a CARY 300 UV-Visable spectrophotometer. Control rates (no PaMTIP) were subtracted from initial rates. Km and kcat values for PaMTIP were obtained by fitting initial rates to the Michaelis-Menten equation using GraFit 5 (Erithacus Software).

[4] = molecular target: PfADA (Plasmodium falciparum (isolate 3D7), UniProt Q8IJA9); conditions: PfADA deamination; cited from earlier work
[5] = molecular target: T2, PfPNP; conditions: cited from earlier work
[6] = initial binding phase, 2 mM MTI, 25° C., pH 7.4, values ± S.E., read-out: Ki
[7] = second tighter binding phase of slow-onset inhibition, values ± S.E., read-out: Ki*

## CSCC(CO)(CO)NCc1c[nH]c2c(=O)[nH]cnc12 [MT-TrisMe-ImmH, 7-((1,3-dihydroxy-2-(methylthiomethyl)propan-2-ylamino)methyl)-3H-pyrrolo[3,2-d]pyrimidin-4(5H)-one]
[1]; Ki
  Ki: 19 nM

## CSC[C@H]1CN(Cc2c[nH]c3c(=O)[nH]cnc23)C[C@@H]1O [MT-DADMe-ImmH, (3R,4S)-1-[(9-deazahypoxanthin-9-yl)methyl]-3-hydroxy-4-(methylthiomethyl)pyrrolidine]
[1]; Ki*, second tighter binding phase of slow-onset inhibition, values ± S.E.
  Ki: 0.34 ± 0.02 nM
[1]; [6]
  Ki: 0.8 ± 0.1 nM
[2]
  Ki: 0.9 nM

## O=c1[nH]cnc2c([C@@H]3N[C@H](CSc4ccccc4)[C@@H](O)[C@H]3O)c[nH]c12 [PhT-ImmH]
[1]
  mode of inhibition: slow-onset, tight-binding inhibition
[1]; [6]
  Ki: 0.66 ± 0.09 nM
[1]; [7]
  Ki: 0.035 nM

## Nc1ncnc2c1ncn2[C@@H]1O[C@H](CO)[C@@H](O)[C@H]1O [adenosine]
[3]
  fold decreases of Kcat/Km in comparison with those of MTI: 750 fold
  kcat/Km: 2400 M⁻¹ s⁻¹
  Km: 23 ± 1 µM
  kcat: 0.0549 s⁻¹ and 0.0549 ± 0.0005 s⁻¹
[3]; Table 2
  kcat/Km: 2.4 ± 0.1 × 10^3 M^−1s^−1
[4]
  kcat/Km: 62000 M⁻¹ s⁻¹

## CSC[C@@]1(O)CN(Cc2c[nH]c3c(=O)[nH]cnc23)C[C@@H]1O [4′-HO-MT-DADMe-ImmH, (3S,4R)-1-[(9-deazahypoxanthin-9-yl)methyl]-3,4-dihydroxy-4-methylthiomethylpyrrolidine]
[1]
  inhibitor potency in words: nanomolar inhibitor

## CCCSC[C@H]1CN(Cc2c[nH]c3c(=O)[nH]cnc23)C[C@@H]1O [PrT-DADMe-ImmH]
[1]
  fold tighter binding / enhanced potency relative to MT-DADMe-ImmH: 4 fold

## OC[C@H]1O[C@@H](n2cnc3c(O)ncnc32)[C@H](O)[C@@H]1O [inosine]
[5]
  kcat/Km: 360000 M⁻¹ s⁻¹
[3]
  fold decreases of Kcat/Km in comparison with those of MTI: 300 fold
  kcat/Km: 6300 M⁻¹ s⁻¹
  Km: 90 ± 20 µM
  kcat: 0.57 s⁻¹ and 0.57 ± 0.04 s⁻¹
[3]; Table 2
  kcat/Km: 6 ± 1 × 10^3 M^−1s^−1

## CSCC(CO)NCc1c[nH]c2c(=O)[nH]cnc12 (stereo not shown) [MT-SerMe-ImmH]
[1]; [7]
  Ki: 0.096 nM
